In patent publication US20020182232A9, “Cosmetic composition comprising at least one ingredient chosen from compounds of formula (I) and salts thereof, use thereof as colouring agent, and novel compounds of formulae (IIa), (IIIa), (IVa), (Va), and (VIa), and salts thereof” (priority 2000, published 2002):

Columns and labels:
[1] = Bleeding: ability to dissolve in a dispersion medium (optical density of supernatant); format: physicochemical; details: supernatant absorbance 400 to 800 nm, bleeds when O.D. >1.5; for Bleeding in water, O.D.: 1% by weight compound in water + 1% Polysorbate 20; for Bleeding in oil (triglycerides), O.D.: 1% by weight compound in caprylic/capric acid triglycerides
Protocol: 3/Bleeding: Ability to Dissolve in a Dispersion Medium
A dispersion was prepared comprising 1% by weight of test compound in an oil (caprylic/capric acid triglycerides).
A dispersion was also prepared comprising 1% by weight of test compound in a mixture of water and 1% by weight of wetting agent (Polysorbate 20).
The mixture was stirred for 10 minutes using a magnetic bar. 10 g of dispersion were weighed out and placed in centrifuge tubes. This material was centrifuged for 30 minutes at 3000 rpm.
The supernatant liquid was taken up and the optical density was determined by measuring the absorbence on a spectrophotometer from 400 to 800 nm, at a speed of 240 nm/min.
The compound was considered to bleed when the optical density was greater than 1.5.

[2] = Photochemical stability (SUNTEST CPS, colour difference before/after); format: physicochemical; details: compacted pure compound, SUNTEST CPS one hour, 765 watts/m^2; UV-unstable when ΔE >6
Protocol: 4/Photochemical Stability
The UV stability was carried out by leaving the compacted pure test compound (100 bar, FAP crucible) in the SUNTEST CPS for one hour. The SUNTEST CPS is an apparatus sold by Heraeus. […] The apparatus was used at 765 watts/m^2 and emits UVA, UVB, and visible light over a range of 300 to 800 nm.
The difference in colour ΔE before and after the SUNTEST was measured by colorimetry.
The compound was considered as UV-unstable when the ΔE was >6.

Row | Bleeding in water, O.D. [1] | Photochemical stability ΔE [2] | melting point [°C] | Bleeding in oil (triglycerides), O.D. [1] | Structure (SMILES)
1 | O.D. = 0.16 | ΔE = 0.10 |  |  | O=C1c2ccccc2C(=O)c2c1oc1cc(O)c3ccccc3c21 [5-hydroxydinaphtho(2,1-b:2′,3′-d)furan-8,13-dione]
2 | O.D. = 0.02 | ΔE = 1.36 |  |  | O=C1c2ccccc2C(=O)c2c1oc1c2cc(Cl)c2ccccc21 [5-chlorodinaphtho-(1,2-b:2′,3′-d)furan-7,12-dione]
3 | O.D. = 0.08 | ΔE = 6.63 |  |  | O=C(O)c1nn(-c2ccc(S(=O)(=O)O)cc2)c(O)c1N=Nc1ccc(S(=O)(=O)O)cc1 [FD&C Yellow No. 5, reference compound]
4 | O.D. = 0.01 | ΔE = 0.23 |  |  | O=C1c2ccccc2C(=O)c2c1oc1ccc3ccccc3c21 [Dinaphtho(2,1-b:2′,3′-d)furan-8,13-dione, dinaphtho(2,1-b:2′,3′-d)furan-8,13-dione]
5 | O.D. = 0.13 | ΔE = 3.91 |  |  | O=C1c2ccccc2C(=O)c2c1oc1c2ccc2ccccc21 [Dinaphtho(1,2-b:2′,3′-d)furan-7,12-dione, dinaphtho(1,2-b:2′,3′-d)furan-7,12-dione]
6 | O.D. = 0.27 | ΔE = 0.24 |  |  | CCOc1cc2c3c(oc2c2ccccc12)C(=O)c1ccccc1C3=O [5-ethoxydinaphtho(1,2-b:2′,3′-d)furan-7,12-dione]
7 | O.D. = 0.29 | ΔE = 0.91 | 173.9 |  | CCCCCCOc1cc2c3c(oc2c2ccccc12)C(=O)c1ccccc1C3=O [5-hexyloxydinaphtho-(1,2-b:2′,3′-d)furan-7,12-dione]
8 | O.D. = 0.03 | ΔE = 0.81 |  |  | CC(C)Oc1cc2c3c(oc2c2ccccc12)C(=O)c1ccccc1C3=O [5-isopropyloxydinaphtho-(1,2-b:2′,3′-d)furan-7,12-dione]
9 | O.D. = 0.04 | ΔE = 0.81 | 292.1 | O.D. = 0.88 | COc1ccc2c(ccc3oc4c(c32)C(=O)c2ccccc2C4=O)c1 [3-methoxydinaphtho-(2,1-b:2′,3′-d)furan-8,13-dione]
10 | O.D. = 0.30 | ΔE = 0.28 |  |  | COc1ccc2ccc3oc4c(c3c2c1)C(=O)c1ccccc1C4=O [2-methoxydinaphtho-(2,1-b:2′,3′-d)furan-8,13-dione]
11 | O.D. = 0.23 | ΔE = 1.32 |  |  | O=C1c2ccccc2C(=O)c2c1oc1c2ccc2ccc(O)cc21 [2-Hydroxy-dinaphtho(1,2-b:2′,3′-d)furan-7,12-dione]
12 | O.D. = 0.58 | ΔE = 10.06 |  |  | O=S(=O)([O-])c1ccc(N=Nc2c(O)ccc3cc(S(=O)(=O)[O-])ccc23)cc1.[Na+].[Na+] [FD&C Yellow No. 6, reference compound]
13 | O.D. = 0.03 | ΔE = 2.61 |  | O.D. = 0.92 | O=C1c2ccccc2C(=O)c2c1oc1ccc3cc(Br)ccc3c21 [3-bromodinaphtho(2,1-b:-2′,3′-d)furan-8,13-dione]
